Data from patent publication US20150376235A1, “Peptides for the Treatment of Immune Reconstitution Inflammatory Syndrome (IRIS) and Related Diseases” (priority 2014, published 2015).
Non-standard residues stand in square brackets, D forms with d. No end group written: not given here.

Legend:
[1] = test system: rats with partial ligation of the sciatic nerve; settings: cited from earlier work
CCR2 = CCR2 (Homo sapiens, UniProt P41597); settings: 30 min pretreatment; human MCP-1 50 ng/mL, 90 min; cited from earlier work
Chain of CCR2 (P41597 whole entry): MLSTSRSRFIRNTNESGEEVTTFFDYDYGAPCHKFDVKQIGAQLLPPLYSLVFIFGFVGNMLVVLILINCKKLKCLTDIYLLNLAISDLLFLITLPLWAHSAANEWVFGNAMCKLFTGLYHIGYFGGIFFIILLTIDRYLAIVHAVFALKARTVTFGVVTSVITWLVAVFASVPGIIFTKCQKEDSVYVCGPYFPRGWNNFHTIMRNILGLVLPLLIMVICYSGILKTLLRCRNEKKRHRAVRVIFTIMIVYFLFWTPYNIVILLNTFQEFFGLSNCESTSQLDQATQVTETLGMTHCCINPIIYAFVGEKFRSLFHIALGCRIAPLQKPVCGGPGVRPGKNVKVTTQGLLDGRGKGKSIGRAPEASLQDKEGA

[2] = Pharmacokinetic study following intravenous and oral administration, LC-MS/MS of plasma; type: in vivo, male Sprague Dawley rat
Method: A pharmacokinetic study of all-D [TTNYT] (RAP-103) (SEQ ID NO:2) following intravenous and oral administration was conducted at a target dose level of 1 mg/kg in the male Sprague Dawley rat. The concentration of RAP-103 in each plasma and brain sample was measured using a suitable LC-MS/MS assay. The assay used was a research grade assay (RGA-1) which was established by assessing the accuracy, precision and the linearity of the method. Plasma concentrations generated were used to evaluate the pharmacokinetic parameters of all-D-TTNYT (RAP-103).
The dose formulation was administered intravenously to multiple animals as a slow bolus over ca 30 s via the tail vein and to a different group of animals orally via gastric gavage at a target dose volume of 1 mL/kg, to achieve a target dose level of 1 mg/kg. The dose volume administered was calculated according to the bodyweight of the animal on the day of dosing. The weight of administered dose was recorded. […] Results expressed as ng/mL

[3] = test system: inflammatory cytokines, chemokines, and receptors; settings: Rat; oral gavage 0.05-1 mg/kg, 7 days
Excerpt: The specific experimental details are provided in Padi, 2012.

[4] = test system: inflammatory cytokines, chemokines, and receptors; settings: Rat; oral gavage 0.05-1 mg/kg, 7 days; cited from earlier work
CCR5 = CCR5 (Homo sapiens, UniProt P51681); settings: 30 min pretreatment; human MIP-1β 50 ng/mL, 90 min; cited from earlier work
Chain of CCR5 (P51681 whole entry): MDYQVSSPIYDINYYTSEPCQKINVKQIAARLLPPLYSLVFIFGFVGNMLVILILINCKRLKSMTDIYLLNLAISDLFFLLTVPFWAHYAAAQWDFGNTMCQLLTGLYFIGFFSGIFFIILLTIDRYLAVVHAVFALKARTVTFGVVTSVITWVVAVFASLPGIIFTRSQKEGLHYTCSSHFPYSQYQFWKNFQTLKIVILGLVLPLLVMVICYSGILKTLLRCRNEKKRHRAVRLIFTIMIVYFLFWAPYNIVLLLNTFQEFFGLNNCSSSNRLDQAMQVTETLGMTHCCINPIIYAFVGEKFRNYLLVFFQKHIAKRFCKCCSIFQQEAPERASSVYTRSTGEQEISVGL

inflammatory cytokines = settings: Hu; cited from earlier work
CCR2 (MCP-1) = target: T1, CCR2 (MCP-1) (Homo sapiens, UniProt P41597); test: CCR2 (MCP-1) elicited chemotaxis of human monocytes, all-D-pentapeptides (FIG. 4); type: cell-based; settings: 20 pM peptide 30 minutes; MCP-1 0.6 nM, 2 hours
T1 construct: Purified human monocytes were treated with 20 pM of All-D-pentapeptides for 30 minutes; endogenous in cells; host or cells: purified human monocytes
T1 sequence (P41597 whole entry): as the sequence (P41597 whole entry) above
Method: Purified human monocytes were treated with 20 pM of All-D-pentapeptides for 30 minutes prior to chemotaxis against human MCP-1 (0.6 nM) for 2 hours. […] A representative experiment is shown comprising triplicate determinations and is presented as relative fluorescence units, Mean±SEM.

MCP-1/CCR2 = target: T2, MCP-1/CCR2 (Homo sapiens, UniProt P41597); test: MCP-1/CCR2 elicited β-integrin-mediated adhesion of human monocytes to human fibronectin (FIG. 5); type: cell-based; settings: 10 minutes pretreatment
T2 construct: endogenous in cells; host or cells: human monocytes
T2 sequence (P41597 whole entry): as above
Method: The results are of interest as approved treatments for MS include the immunosupressive monoclonal antibody therapy “Tysabri”, which blocks T cell binding to cellular integrins, and thereby infiltration of inflammatory cells into brains of MS patients.
All-D-(IDNYT) Inhibition of Human Monocyte and THP-1 Cell β-Integrin-Mediated Adhesion to hu-Fibronectin
Human monocytes were treated with the indicated doses of all-D-(IDNYT) for 10 minutes prior to adherence to the β-integrin human fibronectin. Data is the average of two separate experiments, conducted with triplicate determinations. Data are presented as Mean±SEM of the normalized adherence response from two experiments. The IC50 for inhibition of MCP-1 stimulated adherence was generated using a nonlinear inhibition curve fit in GraphPad Prism Version 5.0.

CCL2 (MCP-1) = target: T3, CCL2 (MCP-1) (Homo sapiens, UniProt P41597); test: Blocking CCL2 (MCP-1) chemotaxis at low concentration (FIG. 3); type: cell-based; settings: compounds at 10^−14 M
T3 construct: endogenous in cells; host or cells: human monocytes
T3 sequence (P41597 1-360 isoform P41597-2): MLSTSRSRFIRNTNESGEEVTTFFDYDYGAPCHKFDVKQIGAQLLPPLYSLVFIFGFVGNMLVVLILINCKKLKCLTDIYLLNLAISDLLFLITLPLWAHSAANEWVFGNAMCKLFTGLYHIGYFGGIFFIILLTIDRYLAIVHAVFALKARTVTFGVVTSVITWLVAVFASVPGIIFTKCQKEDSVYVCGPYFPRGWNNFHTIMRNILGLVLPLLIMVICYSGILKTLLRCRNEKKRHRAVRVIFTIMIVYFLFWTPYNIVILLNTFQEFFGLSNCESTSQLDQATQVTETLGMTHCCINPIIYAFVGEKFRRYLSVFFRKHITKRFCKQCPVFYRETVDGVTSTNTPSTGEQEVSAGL
Excerpt: FIG. 3 illustrates the effects of several all-D amino acid peptides in blocking CCL2 (MCP-1) chemotaxis at low concentration. The amino acid sequences of these peptides are: SSTYR (SEQ ID NO:3), TTSYT (SEQ ID NO:4) and NTSYR (SEQ ID NO:7)
In order to show the generalizability of the all-D-amino acid modifications we synthesized additional examples and tested them for antagonism of chemokines receptors implicated in the subject diseases, FIG. 3
Additional All-D-(Pepntapeptides) from V2 Region Block CCR5/CCR2 Human Monocyte Chemotaxis
In FIG. 3, the effects of RAPs in blocking CCL2 (MCP-1) chemotaxis was illustrated.

TLR4 = TLR4 (human, UniProt O00206 24-839); test: cell-based or functional assay
Chain of TLR4 (O00206 24-839): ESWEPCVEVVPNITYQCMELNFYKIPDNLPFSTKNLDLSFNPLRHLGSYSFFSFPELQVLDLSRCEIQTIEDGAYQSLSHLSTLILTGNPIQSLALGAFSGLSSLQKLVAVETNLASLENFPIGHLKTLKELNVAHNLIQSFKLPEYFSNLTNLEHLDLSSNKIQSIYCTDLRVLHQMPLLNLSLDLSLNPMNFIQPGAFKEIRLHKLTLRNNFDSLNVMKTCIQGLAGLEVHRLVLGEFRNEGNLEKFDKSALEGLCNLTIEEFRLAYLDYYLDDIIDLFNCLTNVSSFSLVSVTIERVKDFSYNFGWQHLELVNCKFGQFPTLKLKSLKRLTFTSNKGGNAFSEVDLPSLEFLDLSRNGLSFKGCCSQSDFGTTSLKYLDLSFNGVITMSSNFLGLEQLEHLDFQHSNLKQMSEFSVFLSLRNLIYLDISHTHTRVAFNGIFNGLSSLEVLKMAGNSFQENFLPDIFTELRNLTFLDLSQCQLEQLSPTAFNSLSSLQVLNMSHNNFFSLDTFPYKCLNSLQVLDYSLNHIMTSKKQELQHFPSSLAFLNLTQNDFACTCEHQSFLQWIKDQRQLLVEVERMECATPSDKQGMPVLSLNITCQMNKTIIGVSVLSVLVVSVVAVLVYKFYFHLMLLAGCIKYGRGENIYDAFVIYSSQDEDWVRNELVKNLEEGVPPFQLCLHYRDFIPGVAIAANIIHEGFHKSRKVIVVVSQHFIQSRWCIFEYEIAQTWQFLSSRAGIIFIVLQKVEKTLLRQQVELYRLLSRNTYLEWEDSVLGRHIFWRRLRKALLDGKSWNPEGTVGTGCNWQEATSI

For C[C@H](O)[C@@H](N)C(=O)N[C@@H](C(=O)N[C@H](CC(N)=O)C(=O)N[C@H](Cc1ccc(O)cc1)C(=O)N[C@@H](C(=O)O)[C@H](C)O)[C@H](C)O [RAP-103, All-D-TTNYT], the already established hypersensitivity ([1]; 0.2-1 mg/kg, days 8 to 12) is listed as “reverses”, the “development of thermal hyperalgesia” value ([1]; oral 0.05-1 mg/kg for 7 days) is listed as “inhibits the development” and the mechanical allodynia ([1]; oral 0.05-1 mg/kg for 7 days) is listed as “fully prevents”. For the same molecule, the monocyte infiltration ([1]; peripheral nerve injury) was “reduce”, the spinal microglial activation ([1]; peripheral nerve injury) was “reduce” and the “blocking of MCP-1-elicited chemotaxis” value (CCR2) was “potently blocking”. For the same molecule, the “time of peak levels in plasma” value ([2]; 1 mg/kg, male rat) was 10 to 15 min, the “tolerability of dose administrations” value ([2]; intravenous and oral, 1 mg/kg, male rat) was “well tolerated” and the level at 0.25 h ([2]; male, Sprague-Dawley, rat, plasma, po, 1 mg/kg, oral 1 mg/kg, 0.25 h, individual animals 004M, 005M, 006M, read-out: plasma concentration) was 6.42 ng/mL. For the same molecule, the level at 0.5 h ([2]; male, Sprague-Dawley, rat, plasma, po, 1 mg/kg, oral 1 mg/kg, 0.5 h, individual animals 004M, 005M, 006M, read-out: plasma concentration) was 10.2 ng/mL, the level at 2 h ([2]; male, Sprague-Dawley, rat, plasma, po, 1 mg/kg, oral 1 mg/kg, 2 h, individual animals 004M, 005M, 006M, read-out: plasma concentration) was 12 ng/mL and the level at 4 h ([2]; male, Sprague-Dawley, rat, plasma, po, 1 mg/kg, oral 1 mg/kg, 4 h, individual animals 004M, 005M, 006M, read-out: plasma concentration) was 9.09 ng/mL. The level at 8 h ([2]; male, Sprague-Dawley, rat, plasma, po, 1 mg/kg, oral 1 mg/kg, 8 h, individual animals 004M, 005M, 006M, read-out: plasma concentration) was 6.67 ng/mL, the plasma concentration ([2]; oral 1 mg/kg, male rat, 0.083 h, individual animals 004M, 005M, 006M) was “<LLOQ” and the plasma concentration ([2]; oral 1 mg/kg, male rat, 0.25 h, individual animals 004M, 005M, 006M, 1 mg/kg) was “<LLOQ”. For the same molecule, the plasma concentration ([2]; oral 1 mg/kg, male rat, 1 h, individual animals 004M, 005M, 006M) was “<LLOQ”, the plasma concentration ([2]; oral 1 mg/kg, male rat, 2 h, individual animals 004M, 005M, 006M, 1 mg/kg) was “<LLOQ” and the plasma concentration ([2]; oral 1 mg/kg, male rat, 4 h, individual animals 004M, 005M, 006M, 1 mg/kg) was “<LLOQ”. The plasma concentration ([2]; oral 1 mg/kg, male rat, 8 h, individual animals 004M, 005M, 006M, 1 mg/kg) was “<LLOQ”, the plasma concentration ([2]; oral 1 mg/kg, male rat, 12 h, individual animals 004M, 005M, 006M) was “<LLOQ” and the CCL2 change [3] was “decrease”. For the same molecule, the CCL3 change [3] was “decrease”, the CCR2 change [3] was “decrease” and the CCR5 change [3] was “decrease”. The MCP-1 change [3] was “decrease”, the MIP-1α change [3] was “decrease” and the TNFα change [3] was “decrease”. For the same molecule, the IL-1β change [4] was “decrease”, the IL-6 change [4] was “decrease” and the “blocking of MIP-1β-elicited chemotaxis” value (CCR5) was “potently blocking”.

For D-ala1-peptide T-amide [RAP-101], the IL-1 change (inflammatory cytokines) is listed as “decrease”, the IL-6 change (inflammatory cytokines) is listed as “decrease” and the IL-8 change (inflammatory cytokines) is listed as “decrease”. For the same molecule, the TNFα change (inflammatory cytokines) was “decrease”.

For ETWYS ([dE][dT][dW][dY][dS]), the “inhibition of CCR2 (MCP-1) elicited chemotaxis” value (“inhibition of CCR2” for short) (CCR2 (MCP-1)) was “potently block”.

For IDNYT ([dI][dD][dN][dY][dT]), the “blocking of MCP-1 elicited adhesion to human fibronectin” value (MCP-1/CCR2) was “potently blocking” and the “inhibition of CCR2” value (CCR2 (MCP-1)) was “potently block”.

In the case of NTRYR, the “inhibition of CCR2” value (CCR2 (MCP-1)) is reported as “potently block”.

In the case of “NTSYG ([dN][dT][dS][dY]G; not fully specified (residue 5))”, the “inhibition of CCR2” value (CCR2 (MCP-1)) is reported as “potently block”.

With NTSYR ([dN][dT][dS][dY][dR]) the “blocking CCL2 (MCP-1) chemotaxis” value (CCL2 (MCP-1)) was “retain potency”.

For SSTYR ([dS][dS][dT][dY][dR]), the “blocking CCL2 (MCP-1) chemotaxis” value (CCL2 (MCP-1)) was “retain potency”.

For TTSYT ([dT][dT][dS][dY][dT]), the “blocking CCL2 (MCP-1) chemotaxis” value (CCL2 (MCP-1)) was “retain potency”.

In the case of [dT][dT][dN][dY][dT] [all-D[TTNYT] (RAP-103)], the “IC50 for inhibition of LPS-induced TNFα production in monocyte-derived iDC” value (TLR4) is reported as ~0.1 pM.
